Tests used:
[1] = tested on: thrombin generation in plasma of patients with congenital FVIII-deficiency and inhibitors; test: Thrombin generation in plasma of patients with congenital FVIII-deficiency and high titer inhibitors, spiked in vitro; assay type: biochemical, human; conditions: factor alone; five patient samples, BU-titer 41-280
Excerpt: Normal pooled human plasma and plasma from human FVIII-deficient patients with and without inhibitors (titer specified in Bethesda Units (BU)) was purchased from George King Bio-Medical (Overland Park, Kans., USA). In addition, plasma and clinical information was obtained from two patients with severe FVIII-deficiency (<1% intrinsic FVIII-activity levels) and inhibitors (titers determined in BU by the clinical laboratory using the Nijmegen assay (17) regularly visiting the Hemophilia Treatment Center at the University of California, San Diego (UCSD) after informed consent was obtained. Patient confidentiality safeguards, sample and data acquisition methods were approved by the UCSD Institutional Review Board. Blood was drawn into 3.8% sodium citrate (pH 5.5) at a 9:1 blood/anticoagulant volume ratio, and processed immediately. […]
Endogenous thrombin potential (ETP) assays were performed as described (19). […] In some experiments, 1.25 μg/ml anti-FVIII antibody was added to the plasma and ETP was determined after 1 hour of preincubation. Fluorescence was measured at excitation/emission wavelengths of […] using Gemini EM fluorescent plate reader (Molecular Devices). Fluorescence time course data were converted to nM thrombin as described (20). ETP, defined as the area under the curve (AUC) and the peak height were determined using Origin or GraphPad Prism software.

[2] = tested on: thrombin generation in murine Balb/c plasma with rhAPC; test: Thrombin generation in murine Balb/c plasma in the presence of rhAPC; assay type: biochemical, mouse
Description: BU titer values for FVIII antibodies added to FVIII-deficient plasma were determined using a modified Nijmegen Bethesda assay (Barrow and Lollar; JTH 2006, 4:2223-2229). Briefly, antibody was serially diluted in HBS with 0.05% Tween 80 and mixed 1:1 with pooled normal plasma that was supplemented with 100 mM Imidazole, pH 7.0. Samples were incubated at 37° C. for 2 hours then assayed by aPTT with APTT XL reagent (Pacific Hemostasis). A standard curve was derived from a serial dilution of normal plasma into FVIII deficient plasma that was also mixed 1:1 with HBST and incubated at 37° C. for 2 hours. Percent FVIII activity was plotted versus mg/ml of antibody and residual activity of 50% was defined as 1 BU/ml. In addition, endogenous thrombin potential (ETP) assays were performed as described (3). Briefly FVa mutants or saline were added to human or murine plasma (George King Bio-Medical; mouse source, 50% v/v) supplemented with […] corn trypsin inhibitor (Haematologic Technologies), 10 mM CaCl2, 10 μM phospholipid vesicles (80% phosphatidylcholine, 20% phosphatidylserine, prepared as described (6), 0.2 pM soluble tissue factor (Innovin®, Dade Behring), and 0.4 mM Z-Gly-Gly-Arg-AMC (thrombin substrate, Bachem) in HBS. After mixing, 100 μL was transferred to a FluoroNunc microtiter plate at 37° C. to monitor fluorescence (excitation at 360 nm/emission at 460 nm; Gemini EM fluorescent plate reader (Molecular Devices)). Fluorescence time course data were converted to nM thrombin as described (7). ETP, defined as the area under the curve, was determined using Prism 5.04 (Graphpad).
APC-mediated inactivation of FVa was analyzed in ETP assays and aPTT clotting assays. FVa mutants were incubated with equal volumes of either recombinant human APC (Xigris®) or buffer in human and murine Balb/c plasma.

FVIII-deficient mice = test: Tail clip bleeding assay in FVIII-deficient mice; assay type: in vivo, mouse; conditions: 20 minutes
Description: Mice were anesthetized with Isoflurane 3%, placed on temperature controlled heating pads (37° C.), and the distal portion of the tail was cut at 1.5 mm diameter after which the tail was immersed in a predefined volume of 37° C. saline (0.9% NaCl) for 20 minutes. To study effects on bleeding and clot stability, tubes were changed after 10 minutes to collect blood for the first and second 10 minutes separately. Blood loss was determined by the hemoglobin concentration in the saline solution after red cell lysis with 2% acetic acid and measured by absorbance at 490 nm. Using a hemoglobin standard derived from defined blood volumes, blood loss was calculated assuming a hematocrit of 46% and expressed in μL/g body weight. Groups of Balb/c mice were injected intravenously (tail vein) with equal volumes (200 μL) of ^superFVa or saline 2 minutes prior to intravenous injection of rhAPC (Xigris®). Immediately after APC injection tail cut was performed. All agents were diluted in sterile sodium chloride 0.9% for injection (Hospira Inc).
Mice were anesthetized, placed on temperature controlled heating pads (37° C.), and the distal portion of the tail was cut at 1.5 mm diameter after which the tail was immersed in a predefined volume of 37° C. saline (0.9% NaCl) for 20 minutes. Blood loss was determined by the hemoglobin concentration in the saline solution after red cell lysis with 2% acetic acid and measured by absorbance at 405 nm. Using a hemoglobin standard derived from defined blood volumes, blood loss was calculated assuming a hematocrit of 46% and expressed in μL/g body weight. Groups of FVIII-deficient mice were injected intravenously (retro-orbital) within 2 minutes prior to tail cut with equal volumes ([…]) of sterile saline for injection (0.9%, Hospira Inc.), rhFVIII 200 units/kg FVIII (Xyntha®, Pfizer, NY, N.Y., USA) ^superFVa, rhFVIIa (NovoSeven®, NovoNordisk, Bagsvaerd, Denmark) or a combination of ^superFVa and rhFVIIa. All agents were diluted in sterile sodium chloride 0.9% for injection (Hospira Inc). […]

^superFVa: engineered APC-resistant FVa variant (SEQ ID NO:4): R306Q, R506Q, R679Q, Cys609-Cys1691 disulfide, S2183A, B-domain deleted
effect on ETP and peak height [1]: increased ETP and peak height in all five patient samples | ETP restored ([2]; ETP maximally suppressed by APC): 90-100% | effect on thrombin generation suppressed by APC ([2]; concentrations where ^superFVa restores): fully restored thrombin generation | mean blood loss (FVIII-deficient mice; ^superFVa 10 U/kg iv): 25.9 µL/g | mean blood loss (FVIII-deficient mice; ^superFVa 40 U/kg iv): 9.7 µL/g | mean blood loss (FVIII-deficient mice; ^superFVa 200 U/kg iv): 2.5 µL/g

Reference: US10407488B2, “Therapy for treatment or prevention of conditions associated with bleeding or hypocoagulation” (THE REGENTS OF THE UNIVERSITY OF CALIFORNIA, priority 2013, dated 2019)
